Organism: Rattus norvegicus
Test: Open TG-GATES - Regimen: Single
Assay type: toxicity, organism-based, Sprague-Dawley
Parameters: regimen Single, gender Male, age 6 weeks
Conditions: in vivo, po, 0 mg/kg, route gavage, dose level Control; for APTT / Bas / Eos / Fbg / Hb / Ht / Lym / MCH / MCV / Mono / Neu / PT / Plat / RBC / Ret / WBC: tissue Blood; for KIDNEY_L / KIDNEY_R / KIDNEY_TOTAL: tissue Kidney; for LIVER: tissue Liver; for ALP / ALT / AST / BUN / CRE / Ca / Cl / DBIL / GLC / IP / K / LDH / Na / PL / RALB / TBIL / TG / TP / gamma-GTP: tissue Plasma

NC(=O)N1c2ccccc2C=Cc2ccccc21 [CARBAMAZEPINE]
TERMINAL_BW (3 h): 216.5 g
APTT (3 h): 20 s
Bas (3 h): 0%
Eos (3 h): 1%
Fbg (3 h): 213.8 mg/dL
Hb (3 h): 13.4 g/dL
Ht (3 h): 38.6%
Lym (3 h): 80%
MCH (3 h): 21.9 pg
MCV (3 h): 63.2 fL
Mono (3 h): 2%
Neu (3 h): 16%
PT (3 h): 12.4 s
Plat (3 h): 131 x10_4/uL
RBC (3 h): 611.8 x10_4/ul
Ret (3 h): 6.3%
WBC (3 h): 106.8 x10_2/uL
KIDNEY_L (3 h): 1 g
KIDNEY_R (3 h): 0.9 g
KIDNEY_TOTAL (3 h): 1.9 g
LIVER (3 h): 10 g
ALP (3 h): 846.4 IU/L
ALT (3 h): 33 IU/L
AST (3 h): 64.6 IU/L
BUN (3 h): 11.6 mg/dL
CRE (3 h): 0.4 mg/dL
Ca (3 h): 10.7 mg/dL
Cl (3 h): 103 meq/L
DBIL (3 h): 0.082 mg/dL
GLC (3 h): 199.2 mg/dL
IP (3 h): 9 mg/dL
K (3 h): 3.6 meq/L
LDH (3 h): 176.6 IU/L
Na (3 h): 141.2 meq/L
PL (3 h): 131.8 mg/dL
RALB (3 h): 3.3 g/dL
TBIL (3 h): 0.1 mg/dL
TG (3 h): 66.2 mg/dL
TP (3 h): 5.4 g/dL
gamma-GTP (3 h): 0.8 IU/L
TERMINAL_BW (6 h): 213.8 g
APTT (6 h): 19.3 s
Bas (6 h): 0%
Eos (6 h): 1%
Fbg (6 h): 220.2 mg/dL
Hb (6 h): 13.7 g/dL
Ht (6 h): 40%
Lym (6 h): 77%
MCH (6 h): 21.3 pg
MCV (6 h): 62.5 fL
Mono (6 h): 3.2%
Neu (6 h): 17.6%
PT (6 h): 12.5 s
Plat (6 h): 115.6 x10_4/uL
RBC (6 h): 640.4 x10_4/ul
Ret (6 h): 6.6%
WBC (6 h): 94.2 x10_2/uL
KIDNEY_L (6 h): 1 g
KIDNEY_R (6 h): 1 g
KIDNEY_TOTAL (6 h): 2 g
LIVER (6 h): 9.2 g
ALP (6 h): 858.4 IU/L
ALT (6 h): 37 IU/L
AST (6 h): 65.6 IU/L
BUN (6 h): 8.8 mg/dL
CRE (6 h): 0.4 mg/dL
Ca (6 h): 10.5 mg/dL
Cl (6 h): 103 meq/L
DBIL (6 h): 0.08 mg/dL
GLC (6 h): 196.8 mg/dL
IP (6 h): 9.4 mg/dL
K (6 h): 3.9 meq/L
LDH (6 h): 175.2 IU/L
Na (6 h): 140.2 meq/L
PL (6 h): 133.4 mg/dL
RALB (6 h): 3.3 g/dL
TBIL (6 h): 0.1 mg/dL
TG (6 h): 60.4 mg/dL
TP (6 h): 5.5 g/dL
gamma-GTP (6 h): 1.4 IU/L
TERMINAL_BW (9 h): 211.7 g
APTT (9 h): 22.5 s
Bas (9 h): 0%
Eos (9 h): 1%
Fbg (9 h): 220 mg/dL
Hb (9 h): 13 g/dL
Ht (9 h): 38.2%
Lym (9 h): 78.8%
MCH (9 h): 20.9 pg
MCV (9 h): 61.5 fL
Mono (9 h): 2.2%
Neu (9 h): 17.5%
PT (9 h): 13.2 s
Plat (9 h): 119.7 x10_4/uL
RBC (9 h): 621.8 x10_4/ul
Ret (9 h): 6.6%
WBC (9 h): 89.4 x10_2/uL
KIDNEY_L (9 h): 1 g
KIDNEY_R (9 h): 1 g
KIDNEY_TOTAL (9 h): 2 g
LIVER (9 h): 9.3 g
ALP (9 h): 824.8 IU/L
ALT (9 h): 32 IU/L
AST (9 h): 63.8 IU/L
BUN (9 h): 9.8 mg/dL
CRE (9 h): 0.4 mg/dL
Ca (9 h): 10.3 mg/dL
Cl (9 h): 102 meq/L
DBIL (9 h): 0.07 mg/dL
GLC (9 h): 202.8 mg/dL
IP (9 h): 9.3 mg/dL
K (9 h): 3.9 meq/L
LDH (9 h): 170.4 IU/L
Na (9 h): 140.2 meq/L
PL (9 h): 127 mg/dL
RALB (9 h): 3.3 g/dL
TBIL (9 h): 0.1 mg/dL
TG (9 h): 47 mg/dL
TP (9 h): 5.3 g/dL
gamma-GTP (9 h): 1 IU/L
TERMINAL_BW (24 h): 225.7 g
APTT (24 h): 21.9 s
Bas (24 h): 0%
Eos (24 h): 0.8%
Fbg (24 h): 215.6 mg/dL
Hb (24 h): 13.7 g/dL
Ht (24 h): 40.7%
Lym (24 h): 79.8%
MCH (24 h): 21.5 pg
MCV (24 h): 63.9 fL
Mono (24 h): 2.4%
Neu (24 h): 15.8%
PT (24 h): 12.1 s
Plat (24 h): 117.9 x10_4/uL
RBC (24 h): 637.2 x10_4/ul
Ret (24 h): 6%
WBC (24 h): 90.1 x10_2/uL
KIDNEY_L (24 h): 1 g
KIDNEY_R (24 h): 1 g
KIDNEY_TOTAL (24 h): 2 g
LIVER (24 h): 10.4 g
ALP (24 h): 990.6 IU/L
ALT (24 h): 39.2 IU/L
AST (24 h): 70.4 IU/L
BUN (24 h): 15.6 mg/dL
CRE (24 h): 0.4 mg/dL
Ca (24 h): 10.6 mg/dL
Cl (24 h): 102.4 meq/L
DBIL (24 h): 0.088 mg/dL
GLC (24 h): 207 mg/dL
IP (24 h): 7.9 mg/dL
K (24 h): 4 meq/L
LDH (24 h): 199 IU/L
Na (24 h): 140.4 meq/L
PL (24 h): 146.2 mg/dL
RALB (24 h): 3.4 g/dL
TBIL (24 h): 0.1 mg/dL
TG (24 h): 93.6 mg/dL
TP (24 h): 5.6 g/dL
